Patent US6262108A, “Medicinal use of cromoglycic acid compounds” (Kyoto Pharmaceutical Industries, Ltd., priority 1997, dated 2001)

Tested on: type I and type IV allergic dermatitis
Experiment: Type I and Type IV allergic dermatitis (repeat application of DNFB) auricle swelling
Assay type: in vivo, male BALB/c mice
Conditions: 100 mg/kg orally twice a day; for Increase in thickness of auricle by repeat application of 0.2% DNFB solution: mean ± standard error
From the text: According to the method of Nagai et al., (Naoki Inagaki and Hiroichi Nagai, The 8th Spring Meeting of Japanese Society of Allergology, 1996), the inhibitory action of diethyl acetoacetylcromoglycate on type I and type IV allergic dermatitis was examined.
According to this method, a type I allergic reaction is induced in addition to a type IV allergic reaction due to repeat contact sensitization with antigen. […] The method is described in detail in the following.
Male 6-week-old BALB/c mice (Japan SLC, Inc.) were divided into two groups of control group and administration group including 10 mice each. A 0.5% methylcellulose solution (10 ml/kg) was forcefully administered orally to the control group and diethyl acetoacetylcromoglycate (100 mg/kg) was forcefully administered orally to the administration group twice a day for 36 days for each group. The thickness of both auricles of each mouse was measured with a dial thickness gauge (Mitutoyo Co.) under ether anesthesia before initial administration on day 1 after administration. After the initial administration on day 8 of the administration, the thickness of both auricles of each mouse was measured with a dial thickness gauge under ether anesthesia. 0.2% Dinitrofluorobenzene (DNFB) dissolved in acetone-olive oil (mixing ratio 3:1) was applied by 25 μl to the left and right auricles. After 24 hours from the application, the thickness of both auricles of each mouse was measured under ether anesthesia with a dial thickness gauge. Thereafter, similar manipulation was repeated 4 times at a week interval. At the 5th application, the thickness of both auricles was also measured at 1 and 4 hours after the application.
Changes in the thickness of both auricles of each mouse were calculated from the measurement values of the thickness of the both auricles before the initial application. The average of changes in the thickness of the left and right auricles of each mouse was taken as the variation of the mouse.

For CCOC(=O)c1cc(=O)c2c(OCC(COc3cccc4oc(C(=O)OCC)cc(=O)c34)OC(=O)CC(C)=O)cccc2o1 [Example 1, Diethyl Acetoacetylcromoglycate], the “Increase in thickness of auricle by repeat application of 0.2% DNFB solution” value (“Increase in thickness … of 0.2% DNFB solution” below) (1 hr after 5th application (type I allergic reaction), control 0.098 ± 0.012, p < 0.05) was 0.058 ± 0.007 mm, the “Increase in thickness … of 0.2% DNFB solution” value (4 hr after 5th application, control 0.063 ± 0.007) was 0.056 ± 0.007 mm and the “Increase in thickness … of 0.2% DNFB solution” value (24 hr after 1st application, control 0.011 ± 0.002) was 0.012 ± 0.002 mm. The “Increase in thickness … of 0.2% DNFB solution” value (24 hr after 2nd application, control 0.048 ± 0.004, p < 0.05) was 0.037 ± 0.003 mm, the “Increase in thickness … of 0.2% DNFB solution” value (24 hr after 3rd application, control 0.092 ± 0.009, p < 0.01) was 0.061 ± 0.005 mm and the “Increase in thickness … of 0.2% DNFB solution” value (24 hr after 4th application, control 0.141 ± 0.012, p < 0.01) was 0.095 ± 0.009 mm. The “Increase in thickness … of 0.2% DNFB solution” value (24 hr after 5th application, control 0.182 ± 0.015, p < 0.01) was 0.122 ± 0.010 mm, the “effect on swelling of the auricle (in words)” value (after the second application of DNFB, t-test with control group) was “significant inhibitory action on the swelling of the auricle after the second application” and the “Increase in thickness … of 0.2% DNFB solution” value (before 1st application, control 0.008 ± 0.003) was 0.008 ± 0.002 mm. The “Increase in thickness … of 0.2% DNFB solution” value (before 2nd application, control 0.033 ± 0.003) was 0.029 ± 0.003 mm, the “Increase in thickness … of 0.2% DNFB solution” value (before 3rd application, control 0.042 ± 0.005) was 0.035 ± 0.003 mm and the “Increase in thickness … of 0.2% DNFB solution” value (before 4th application, control 0.049 ± 0.004) was 0.040 ± 0.005 mm. For the same compound, the “Increase in thickness … of 0.2% DNFB solution” value (before 5th application, control 0.059 ± 0.006) was 0.048 ± 0.005 mm and the “effect on swelling of the auricle, type I allergic reaction (in words)” value (one hour after the fifth application of DNFB) was “significant inhibitory action on the swelling of the auricle”.
